How the values were obtained:
[1] = test system: Hela uterine cervix cancer cells; assay: MTT assay, Hela cells; format: cell-based; conditions: Homo sapiens, 72 h, 1000 cells per well
Method: (§1) The adhered MDA-MB-4355 cells in logarithmic growth phase, were digested by 0.05% trypsogen, counted and formulated into a cell suspension with a medium. After counted, the suspension was inoculated on a 96-well plate with 3000 cells and 100 μl medium per well. The inoculated 96-well plate was placed overnight in an incubator at 37 with 5% CO2 to allow the cells to adhere to the wall. On the next day, the administration of the drugs started. Before the administration, into some of the control wells, each was added 20 μl of the MTT solution (5 mg/ml) without removing the medium therein. After incubated for 3 h, the absorption at A550/690 was recorded as the initial cell concentration. For the drug wells, each was added into 100 μl of medium containing 2 μl of compound solution. For the control wells which use DMSO as background control, each was also added into 100 μl of medium containing 2 μl of DMSO. In addition, each experiment was carried out with adriamycin as the positive control. Subsequently, the 96-well plate was incubated in an incubator at 37 with 5% CO2 for 72 h. each compound was tested in triplicate wells (6 μl of compound solution was put into a sterilized eppendorf centrifuge tube, then 300 μl of medium was added and mixed well, and the mixture was distributed into 3 wells respectively), and at six concentrations which form a gradient. 3 days (72 h) later, 40 μl of MTT solution (5 mg/ml) was put into each well directly (without sucking off the medium therein), and the plate was incubated in the incubator for 3 h and then taken out. The liquid in each well was sucked off, and then 100 μl of DMSO was put into each well to dissolve the crystal completely with slight shake. The absorbance of the solution in each well was determined at 550/690 nm on an ELISA Reader as the cell density after treated with the compound. The growth inhibition of compound against breast cancer cells MDA-MB-435S was represented by the cell survival rate, and IC50 was determined from the profile of cell survival rate vs compound concentration. The calculating formula was as follows: cell survival rate=[(cells+compound)A550/690/(cells+compound vector DMSO)A550/690]×100%
(§2) MDA-MB-435S: human breast cancer cells; HCT116: colon cancer cells; A549: lung adenocarcinoma cells; Hela: uterine cervix cancer cells.
(§3) The tests were performed in the same manner as that of experimental example 1, except that for Hela cells, after counted, each well was seeded with 1000 cells and 100 μl of medium on a 96-well plate.

[2] = test system: MDA-MB-435 (Breast Cancer); assay: SRB assay, MDA-MB-435; format: cell-based; conditions: Homo sapiens, 72 h, read-out: IC50 (μM) (mean ± SD)
Method: (§4) Experimental method: The antineoplasmic activities in vitro of the compounds were determined by SRB assay. The detailed procedure was as follows. The cells in the logarithmic growth phase were inoculated on a 96-well microculture plate with a suitable density (100 μl/well), and allowed to attach overnight, followed by addition of the compound at different concentrations to be treated for 72 h. For each concentration, the test was carried out in triplicate wells, and included control wells containing the aqueous medium of normal saline and a blank well containing all medium without cells for zeroing. After cultured overnight, the cells were treated with the compound at different concentrations for 72 h. After the treatment, the culture medium was removed, and the cells were fixed with 10% (wt/vol) trichloroacetic acid (100 μL/well) at 4° C. for 1 h. The cells were then washed with distilled water for 5 times, and died at room temperature, followed by addition of a SRB solution (4 mg/mL, dissolved in 1% glacial acetic acid) at 100 μL/well. The cells were incubated and stained at room temperature for 15 min, then washed with 1% glacial acetic acid for 5 times to remove the uncombined SRB, and died at room temperature. 100 μL of 10 mM Tris solution was added in each well, and the Optical Density (OD) were measured at a wavelength of 560 nm on a VERSMax ELISA Reader (Molecule Devices). The growth inhibition of the compound against tumor cells was calculated according to the following equation: Growth inhibition (%)=(ODcontrol−ODtreated)/ODcontrol×100%.
(§5) IC50 (the concentration of the sample compound that is required for 50% inhibition of cell growth) was calculated by using the Logit method based on the measurement, and each test was repeated for 3 times to calculate the mean value and standard deviation.

Zip177 (Liver Cancer) = assay: SRB assay, Zip177; format: cell-based; conditions: 72 h, read-out: IC50 (μM) (mean ± SD)
Method: as §4, §5

SMMC-7721 (Liver Cancer) = assay: SRB assay, SMMC-7721; format: cell-based; conditions: Homo sapiens, 72 h, read-out: IC50 (μM) (mean ± SD)
Method: as §4, §5

BEL-7402 (Liver Cancer) = assay: SRB assay, BEL-7402; format: cell-based; conditions: Homo sapiens, 72 h, read-out: IC50 (μM) (mean ± SD)
Method: as §4, §5

[3] = test system: lung adenocarcinoma cells A549; assay: MTT assay, A549 cells; format: cell-based; conditions: Homo sapiens, 72 h
Method: as §1, §2, §3

HO-8910 (Ovarian Cancer) = assay: SRB assay, HO-8910; format: cell-based; conditions: 72 h, read-out: IC50 (μM) (mean ± SD)
Method: as §4, §5

A549 (Lung Cancer) = assay: SRB assay, A549; format: cell-based; conditions: Homo sapiens, 72 h, read-out: IC50 (μM) (mean ± SD)
Method: as §4, §5

[4] = test system: SGC-7901 (Gastric Cancer); assay: SRB assay, SGC-7901; format: cell-based; conditions: Homo sapiens, 72 h, read-out: IC50 (μM) (mean ± SD)
Method: as §4, §5

HCT-116 (Colon Cancer) = assay: SRB assay, HCT-116; format: cell-based; conditions: Homo sapiens, 72 h, read-out: IC50 (μM) (mean ± SD)
Method: as §4, §5

HMEC (Others) = assay: SRB assay, HMEC; format: cell-based; conditions: Homo sapiens, 72 h, read-out: IC50 (μM) (mean ± SD)
Method: as §4, §5

[5] = test system: human breast cancer cells MDA-MB-435 transplanted on nude mice; assay: Antineoplasmic activity in vivo, MDA-MB-435 transplanted tumor on nude mice; conditions: for Body Weight(g) Ultimate / TV (mm^3) d21 / RTV: q3w × 3w; for Body Weight(g) Ultimate: i.v. 4 times then peritoneally 5 times; for RTV: d21
Method: (§6) Dosage: among 3 groups, the dosages of L538 were set at 5, 10 and 20 mg/kg as the high, middle and low dosages, respectively, administrating intravenously 3 times a week; while MMC was administrated intravenously at the first day whit a dosage of 5 mg/kg.
(§7) Animals: BALB/CA nude mice, male, 40-45 days old, body weight: 18±1 g, provided by Shanghai Institute of Materia Medica, Chinese Academy of Sciences. […] Animal number in each group: 7 in negative control group, and 4 in administration group.
(§8) The amount of inoculated cells was 5×10^6. After the transplanted tumor was formed by inoculation, it was used after passed for 3 generations in nude mice.
(§9) Experimental procedure: tumor tissue in productive phase was cut into nubs of about 1.5 mm^3. Under sterile conditions, the nubs were inoculated subcutaneously in right axillary fossa of the nude mice. The diameters of the transplanted tumors on nude mice were measured by a vernier caliper. When the tumors grew up to 100-200 mm^3, the animals were divided randomly into groups. Mice in experimental groups were administered intravenously every other day. […] The total administration duration was 3 weeks. For the positive control, MMC, Mice were administered intravenously once at the first day of a week, and the total administration duration was 3 weeks. Mice in control groups were administrated physiologic saline in equivalent amount. The diameter of the tumor and weight of mice were measured twice a week. The equation for calculating the TV (tumor volume) was as follows: TV=½×a×b^2, • wherein, a is length and b is width. RTV (relative tumor volume) was calculated based on the measured results, and the equation thereof was as follows: RTV=Vt/V0 • wherein, V0 is the tumor volume measured when the mice were grouped (i.e. d0), and Vt is the tumor volume at each measurement. The evaluation index for the antitumor activity was the relative tumor proliferation rateT/C (%).
(§10) The calculation equation was as follows: T/C(%)=(TRTV/CRTV)×100, • wherein, TRTV is the RTV of therapeutic Group and CRTV is RTV of negative control group.

DU145 (Prostatic Cancer) = assay: SRB assay, DU145; format: cell-based; conditions: Homo sapiens, DU-145, 72 h, read-out: IC50 (μM) (mean ± SD)
Method: as §4, §5

[6] = test system: colon cancer cells HCT116; assay: MTT assay, HCT116 cells; format: cell-based; conditions: Homo sapiens, HCT-116, 72 h
Method: as §1, §2, §3

HepG2 (Liver Cancer) = assay: SRB assay, HepG2; format: cell-based; conditions: Homo sapiens, 72 h, read-out: IC50 (μM) (mean ± SD)
Method: as §4, §5

[7] = test system: human breast cancer cells MDA-MB-435 transplanted on nude mice; conditions: mouse, in vivo
Method: as §6, §7, §8, §9, §10

[8] = test system: HPAF-II (Pancreatic Cancer); assay: SRB assay, HPAF-II; format: cell-based; conditions: Homo sapiens, 72 h, read-out: IC50 (μM) (mean ± SD)
Method: as §4, §5

CO[C@@H](C(=O)N[C@@H](C)C(=O)NCCOC(=O)C12CC3CC(CC(C3)C1)C2)[C@H](O)[C@@H](O)[C@H](O)/C=C/C(C)(C)C [Compound L538]
IC50 [1]: 91 ± 19 nM
IC50 [2]: 0.09 ± 0.01 µM
IC50 (Zip177 (Liver Cancer)): 0.37 ± 0.06 µM
IC50 (SMMC-7721 (Liver Cancer)): 0.58 ± 0.04 µM
IC50 (BEL-7402 (Liver Cancer)): 0.37 ± 0.27 µM
IC50 [3]: 133 ± 25 nM
IC50 (HO-8910 (Ovarian Cancer)): > 20 µM
IC50 (A549 (Lung Cancer)): 0.02 ± 0.004 µM
IC50 [4]: 3.92 ± 1.78 µM
IC50 (HCT-116 (Colon Cancer)): 0.24 ± 0.1 µM
IC50 (HMEC (Others)): 0.17 ± 0.06 µM
growth inhibition of transplanted tumor, conclusion ([5]; 5, 10 and 20 mg/kg, 3 weeks): can significantly depress the growth
T/C (%) ([5]; L538 5 mg/kg, q3w × 3w (low dosage group), P >0.05): 64.7%
Body Weight(g) Ultimate ([5]; L538 5 mg/kg, initial 19.3 g): 23.5 g
TV (mm^3) d21 ([5]; L538 5 mg/kg, d0 131 ± 59): 1144 ± 353 mm^3
RTV ([5]; L538 5 mg/kg): 9.6 ± 3.5
T/C (%) ([5]; L538 10 mg/kg, q3w × 3w (middle dosage group), P <0.05): 47.1%
Body Weight(g) Ultimate ([5]; L538 10 mg/kg, initial 17.7 g): 21.7 g
TV (mm^3) d21 ([5]; L538 10 mg/kg, d0 133 ± 49): 951 ± 619 mm^3
RTV ([5]; L538 10 mg/kg): 6.9 ± 3.6
T/C (%) ([5]; L538 20 mg/kg, q3w × 3w (high dosage group), P <0.05): 36.0%
Body Weight(g) Ultimate ([5]; L538 20 mg/kg, initial 18.5 g): 19.7 g
TV (mm^3) d21 ([5]; L538 20 mg/kg, d0 135 ± 37): 735 ± 501 mm^3
RTV ([5]; L538 20 mg/kg): 5.3 ± 3.1
tail stimulus on intravenous administration ([5]; after administered intravenously 4 times, every other day): too strong tail stimulus to be administered intravenously
increase in body weight ([5]; high dosage group): did not have an significant increase in body weight
growth inhibition of transplanted tumor ([5]; low dosage group): did not be depressed obviously
IC50 (DU145 (Prostatic Cancer)): 0.14 ± 0.04 µM
IC50 [6]: 98 ± 9 nM
IC50 (HepG2 (Liver Cancer)): 0.45 ± 0.07 µM
dead nude mice [7]: none of the experimental groups had dead nude mice
IC50 [8]: 0.65 ± 0.21 µM
